The RepoRT retention time repository (doi:10.1021/acs.analchem.2c02893)

Experiment: RP, Thermo Scientific Acclaim RSLC 120 C18, 100 × 2.1 mm, 2.2 µm, 30 °C, 0.2 mL/min, estimated dead time 1.1 min; A: 90% water + 10% methanol + 0.01% formic acid + 5 mM ammonium formate, pH 3.61; B: methanol + 0.01% formic acid + 5 mM ammonium formate, pH 3.61; gradient (min/%B) 0/1 1/1 2/39 13/99.9 15/99.9 15.1/1 20.1/1
Details: stereoisomer not certain

Structure (SMILES) | LC retention time [min]
O=S(=O)(c1ccc(Cl)cc1)c1cc(Cl)c(Cl)cc1Cl [Tetradifon] | 12.2
CCNc1nc(NCC)[nH]c(=O)n1 [Simazine-2-hydroxy] | 4.21
CCOCCN(C(=O)CCl)C(=C(C)C)c1ccccc1 [Pethoxamide] | 10.1
CCC1(c2ccccc2)C(=O)NCNC1=O [Primidone] | 5.29
CCc1cccc2c3c([nH]c12)C(CC)(CC(=O)O)OCC3 (stereo not drawn) [Etodolac] | 10.6
CS(=O)(=O)c1ccc(C(=O)C2C(=O)CCCC2=O)c(Cl)c1 [Sulcotrione] | 5
O=C(CC1NCCCC1O)Cn1cnc2cc(Br)c(Cl)cc2c1=O (stereo not drawn) [Halofuginone] | 6.76
CCCCOC(=O)c1ccccc1C(=O)OCCCC [Phthalate-Di-n-butyl] | 12
CCCOC(C(=O)OC1CCN(C)CC1)(c1ccccc1)c1ccccc1 [Propiverine] | 9.36
CCOC(=O)C1(c2ccccc2)CCC=CC1N(C)C (stereo not drawn) [Tilidine] | 5.1
OCCN1CCN(CCCN2c3ccccc3Sc3ccc(C(F)(F)F)cc32)CC1 [Fluphenazine] | 9.93
CC=C(C)C(=O)OC1CC(OC(C)=O)C2(C(=O)OC)COC3C2C12COC(O)(C(=O)OC)C2C(C)(C12OC1(C)C1CC2OC2OC=CC21O)C3O (stereo not drawn) [Azadirachtin] | 7.56
CCCCCn1c(O)c(C(=O)c2cccc3ccccc23)c2ccccc21 [JWH-018-M-2-OH-Ind] | 14
CCCCCn1nc(C(=O)Nc2cccc3ccccc23)c2ccccc21 [MN-18] | 13
C=CCN1CCCC1CNC(=O)c1cc2n[nH]nc2cc1OC (stereo not drawn) [Alizapride] | 3.62
CC(C)c1ccc(NC(N)=O)cc1 [Isoproturon-didemethyl (1-(4-Isoprophenyl)urea)] | 7.76
C=CCN(CC=C)C(=O)C(Cl)Cl [Dichlormid] | 7.18
O=C(CCCl)NCc1ccccc1 [Beclamide] | 6.27
NC1CCC(c2ccc(Cl)c(Cl)c2)c2ccccc21 (stereo not drawn) [Sertraline-Desmethyl] | 9.02
CCOP(=S)(OCC)SCCS(=O)CC (stereo not drawn) [Disulfoton-sulfoxide] | 7.86
O=[N+]([O-])c1ccc(Oc2ccc(Cl)cc2Cl)cc1 [Nitrofen] | 12.1
CNC1(c2ccccc2Cl)CCCCC1=O (stereo not drawn) [Ketamine] | 4.61

Structure (SMILES) | LC retention time [min]
COc1ccc(C(C[N+](C)(C)[O-])C2(O)CCCCC2)cc1 (stereo not drawn) [Venlafaxine-N-oxide] | 6.94
Nc1cc(-c2ccncc2)c[nH]c1=O [Amrinone] | 2.88
CC(N)Cc1cccc(C(F)(F)F)c1 (stereo not drawn) [Fenfluramine-Nor] | 5.91
Cc1cccc(C)c1NC(=O)CS(=O)(=O)O | 9.34
COc1cc(CCN)c(OC)cc1C [2 C-D] | 5.34
CCCOC(=O)NCCCN(C)C [Propamocarb] | 3.5
CC(C)N(C(=O)CS(=O)(=O)O)c1ccc(F)cc1 [Flufenacet-ESA] | 5.71
CCN(CCO)CCn1c(Cc2ccccc2)nc2c1c(=O)n(C)c(=O)n2C [Bamifylline] | 5.24
CN(C)c1ccc(N=Nc2ccccc2)cc1 [Butter yellow] | 12.4
CCCOc1nc2ccc(I)cc2c(=O)n1CCC [Proquinazid] | 13.3
Cc1[nH]c(=O)n(C(C)(C)C)c(=O)c1Cl [Terbacil] | 7.33
CCCCCn1cc(C(=O)NC(C(N)=O)C(C)(C)C)c2ccccc21 (stereo not drawn) [ADBICA] | 11.1
CCOP(=S)(OCC)Oc1cnccn1 [Thionazin (Zinophos)] | 8.35
COc1ccsc1CN(C(=O)CCl)c1c(C)cccc1C [Thenylchlor] | 10.1
Cc1c(C(=O)c2cccc3ccccc23)c2cccc3c2n1C(CN1CCOCC1)CO3 (stereo not drawn) [WIN-55-212-2] | 10.9
COC1=CC(=O)OC(C=Cc2ccccc2)C1 (stereo not drawn) [Kavain] | 8.32
CCOC(=O)c1ccc(O)cc1 [Ethylparaben] | 7.15
COc1cc2c(cc1OC)C13CCN4CC5=CCOC6CC(=O)N2C1C6C5CC43 (stereo not drawn) [Brucine] | 4.21
Cc1ccc(C(CCN(C)C)c2ccccc2)cc1 (stereo not drawn) [Tolpropamine] | 7.47
O=C(CCCN1CCC(O)(c2cccc(C(F)(F)F)c2)CC1)c1ccc(F)cc1 [Trifluperidol] | 7.42
CC(=O)NCC1CN(c2ccc(N3CCOCC3)c(F)c2)C(=O)O1 (stereo not drawn) [Linezolid] | 5.56
CN(C)CCC=C1c2ccccc2Sc2ccc(Cl)cc21 [Chlorprotixene] | 8.99

Structure (SMILES) | LC retention time [min]
CC12CCC3C(CCC4=CC(=O)CCC43C)C1CCC2=O (stereo not drawn) [A4 (4-androsten-3 17-dione)] | 9.36
Cc1nc(NS(=O)(=O)c2ccc(N)cc2)oc1C [Sulfamoxole] | 4.11
CN(C)S(=O)(=O)Nc1ccccc1 [DMSA (N N-Dimethylaminosulfanilide)] | 6.28
CC(C)(C)C(O)C(Oc1ccc(-c2ccccc2)cc1)n1cncn1 (stereo not drawn) [Bitertanol] | 11.3
COC(=O)NS(=O)(=O)c1ccc(N)cc1 [Asulam] | 3.41
CC(=O)Oc1ccc2c(CCN(C(C)C)C(C)C)c[nH]c2c1 [4-AcO-DIPT] | 4.88
CN1COCN(Cc2cnc(Cl)s2)C1=N[N+](=O)[O-] [Thiamethoxam] | 4.25
CCOP(=S)(OCC)Oc1cc(C)nc(N(CC)CC)n1 [Pirimiphos-ethyl] | 12.3
O=c1[nH]c(Cl)c(Cl)cc1Cl [3.5.6-Trichloro-2-pyridinol] | 8.96
CC1(C)OC2CC3C4CCC5=CC(=O)C=CC5(C)C4(F)C(O)CC3(C)C2(C(=O)CO)O1 (stereo not drawn) [Triamcinolone acetonide] | 8.69
O=C(Oc1cccc2ccccc12)c1nn(CCCCCF)c2ccccc12 [SDB-005-5F] | 12.1
C=CC=CCC1=C(C)C(OC(=O)C2C(C=C(C)C(=O)OC)C2(C)C)CC1=O (stereo not drawn) [Pyrethrin II] | 11.7
CCC1C2CC3C4N(C)c5ccccc5C45CC(C2C5O)N3C1O (stereo not drawn) [Ajmaline] | 5.19
COc1ccc2[nH]cc(CCN(C)C)c2c1 [MeO-DMT (5-)] | 3.98
CCCSP(=O)(OCC)SCCC [Ethoprophos] | 10.2
O=C(O)C(c1ccccc1Cl)N1CCc2sccc2C1 (stereo not drawn) [Clopidogrel Carbon acid] | 5.56
O=C1c2ccccc2C(=O)C1C(=O)C(c1ccccc1)c1ccc(Cl)cc1 (stereo not drawn) [Chlorophacinone] | 9.74
O=C(O)c1nc(Cl)ccc1Cl [Clopyralid] | 3.06
CN(C)c1ccc(C(c2ccccc2)c2ccc(N(C)C)cc2)cc1 [Leuco malachite green (LMG)] | 13.7
CC(C)(c1ccc(OCC(O)CCl)cc1)c1ccc(OCC2CO2)cc1 (stereo not drawn) [Bisphenol<U+00A0>A (3-chloro-2-hydroxypropyl) glycidyl ether] | 11.1
C=C1CC2C(CCC3(C)C(=O)CCC23)C2(C)C=CC(=O)C=C12 (stereo not drawn) [Exemestane] | 9.03
CC(C)N(C(=O)SCC(Cl)=C(Cl)Cl)C(C)C [Triallate] | 12.7

Structure (SMILES) | LC retention time [min]
CCCCc1c(C)nc(NCC)[nH]c1=O [Ethirimol] | 8
CCOC(=O)N(C)C(=O)CSP(=S)(OCC)OCC [Mecarbam] | 10.2
O=C(NC(=O)c1ccccc1Cl)Nc1ccc(OC(F)(F)F)cc1 [Triflumuron] | 11.2
CNC(=O)CSP(=S)(OC)OC [Dimethoate] | 5.23
C[Si](Cn1cncn1)(c1ccc(F)cc1)c1ccc(F)cc1 [Flusilazole] | 10.5
CC1(C(=O)Nc2ccc(O)c(Cl)c2Cl)CCCCC1 [Fenhexamide] | 10.1
COP(=S)(OC)Oc1ccc(SC)c(C)c1 [Fenthion] | 11
CCC(C)(C)c1ccc(CC(C)CN2CC(C)OC(C)C2)cc1 (stereo not drawn) [Amorolfine] | 12.9
C#CCOS(=O)OC1CCCCC1Oc1ccc(C(C)(C)C)cc1 (stereo not drawn) [Propargite] | 12.8
CN(C)CCCN1c2ccccc2Sc2cccnc21 [Prothipendyl] | 7.21
CCOP(=S)(OCC)N1C(=O)c2ccccc2C1=O [Ditalimfos] | 10.2
CC=C1CC(C)C(C)(O)C(=O)OCC2=CCN3CCC(OC1=O)C23 (stereo not drawn) [Senecionine] | 4.62
CCC(N)Cc1ccc2c(c1)OCO2 (stereo not drawn) [BDB] | 4.73
CCNc1nc(Cl)nc(NCC)n1 [Simazine] | 7.07
CC(C)N(CCc1c[nH]c2cccc(O)c12)C(C)C [DIPT- 4-OH] | 4.34
COC=C(C(=O)OC)c1ccccc1COc1cc(C(F)(F)F)nc(OC(C)C)n1 [Fluacrypyrim] | 11.5
CCCCN(C)C(=O)Nc1ccc(Cl)c(Cl)c1 [Neburon] | 10.7
CN(Cc1nc2c(N)nc(N)nc2[nH]c1=O)c1ccc(C(=O)NC(CCC(=O)O)C(=O)O)cc1 (stereo not drawn) [7-Hydroxymethotrexat] | 4.69
CC(=O)Nc1c(I)c(NC(C)=O)c(I)c(C(=O)O)c1I [Diatrizoate (Amidotrizoate acid)] | 2.79
CCOC(=O)C1=NOC(c2ccccc2)(c2ccccc2)C1 [Isoxadifen-ethyl] | 10.7
CNCCC=C1c2ccccc2CCc2ccccc21 [Triptyline-Nor] | 8.51
Cc1c(F)c(F)c(COC(=O)C2C(C=C(Cl)C(F)(F)F)C2(C)C)c(F)c1F.Cc1c(F)c(F)c(COC(=O)C2C(C=C(Cl)C(F)(F)F)C2(C)C)c(F)c1F (stereo not drawn) [Tefluthrin] | 13.4
